pIC50: −log10 of the molar value.
Key:
[1] = Drug concentration in plasma of collagen-induced arthritis Lewis rat model 3 mg/kg/day, po measured after 12 hrs post-collection of plasma; assay type: ADME, organism-based; conditions: in vivo, BLD = below limit of detection
[2] = target: T1, Tyrosine-protein kinase ITK/TSK (Homo sapiens) (UniProt Q08881); assay: Displacement of competitive tracer from ITK (unknown origin) assessed as target occupancy at […] preincubated for 15 mins measured for 1 hr relative to control; conditions: dose 1.5 µM
T1 sequence (whole entry): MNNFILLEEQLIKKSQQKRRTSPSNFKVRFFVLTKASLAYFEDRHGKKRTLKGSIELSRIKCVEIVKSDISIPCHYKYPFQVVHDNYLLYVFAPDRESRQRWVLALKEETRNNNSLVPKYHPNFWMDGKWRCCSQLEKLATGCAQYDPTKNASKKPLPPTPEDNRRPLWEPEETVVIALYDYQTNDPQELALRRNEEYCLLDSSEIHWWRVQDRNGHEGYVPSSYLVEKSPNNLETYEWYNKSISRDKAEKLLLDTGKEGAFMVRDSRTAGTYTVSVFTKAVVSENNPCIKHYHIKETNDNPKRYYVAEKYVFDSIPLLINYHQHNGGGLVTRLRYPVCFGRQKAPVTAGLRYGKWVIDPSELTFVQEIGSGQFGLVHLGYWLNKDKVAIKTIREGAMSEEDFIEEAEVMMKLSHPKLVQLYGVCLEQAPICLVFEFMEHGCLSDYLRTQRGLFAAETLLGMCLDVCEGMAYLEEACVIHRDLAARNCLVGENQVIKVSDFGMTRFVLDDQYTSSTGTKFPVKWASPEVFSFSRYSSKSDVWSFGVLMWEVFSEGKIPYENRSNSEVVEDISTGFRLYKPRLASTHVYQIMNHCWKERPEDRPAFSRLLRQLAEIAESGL

[3] = target: D(2) dopamine receptor (Homo sapiens) (UniProt P14416); assay: Displacement of [3H]methyl-spiperone from recombinant human dopamine receptor D2S at 10 uM incubated for 60 mins by radiometric scintillation assay relative to control
Sequence of D(2) dopamine receptor (Homo sapiens) (P14416 whole entry): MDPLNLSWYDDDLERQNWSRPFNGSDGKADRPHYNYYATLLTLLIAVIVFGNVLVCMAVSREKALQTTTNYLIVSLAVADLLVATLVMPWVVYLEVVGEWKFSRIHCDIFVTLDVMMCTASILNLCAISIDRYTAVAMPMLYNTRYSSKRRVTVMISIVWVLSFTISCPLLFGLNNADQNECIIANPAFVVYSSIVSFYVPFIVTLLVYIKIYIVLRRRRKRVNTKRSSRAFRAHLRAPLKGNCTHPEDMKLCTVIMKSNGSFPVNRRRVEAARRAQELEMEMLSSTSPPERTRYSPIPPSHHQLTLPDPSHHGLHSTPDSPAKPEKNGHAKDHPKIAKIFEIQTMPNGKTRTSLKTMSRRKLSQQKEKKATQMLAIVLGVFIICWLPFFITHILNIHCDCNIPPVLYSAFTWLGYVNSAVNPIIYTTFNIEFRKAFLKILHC

[4] = target: T2, Cytoplasmic tyrosine-protein kinase BMX (Homo sapiens) (UniProt P51813); assay: Displacement of competitive tracer from BMX (unknown origin) assessed as target occupancy at […] preincubated for 15 mins measured for 6 hrs relative to control; conditions: dose 1.5 µM
T2 sequence (whole entry): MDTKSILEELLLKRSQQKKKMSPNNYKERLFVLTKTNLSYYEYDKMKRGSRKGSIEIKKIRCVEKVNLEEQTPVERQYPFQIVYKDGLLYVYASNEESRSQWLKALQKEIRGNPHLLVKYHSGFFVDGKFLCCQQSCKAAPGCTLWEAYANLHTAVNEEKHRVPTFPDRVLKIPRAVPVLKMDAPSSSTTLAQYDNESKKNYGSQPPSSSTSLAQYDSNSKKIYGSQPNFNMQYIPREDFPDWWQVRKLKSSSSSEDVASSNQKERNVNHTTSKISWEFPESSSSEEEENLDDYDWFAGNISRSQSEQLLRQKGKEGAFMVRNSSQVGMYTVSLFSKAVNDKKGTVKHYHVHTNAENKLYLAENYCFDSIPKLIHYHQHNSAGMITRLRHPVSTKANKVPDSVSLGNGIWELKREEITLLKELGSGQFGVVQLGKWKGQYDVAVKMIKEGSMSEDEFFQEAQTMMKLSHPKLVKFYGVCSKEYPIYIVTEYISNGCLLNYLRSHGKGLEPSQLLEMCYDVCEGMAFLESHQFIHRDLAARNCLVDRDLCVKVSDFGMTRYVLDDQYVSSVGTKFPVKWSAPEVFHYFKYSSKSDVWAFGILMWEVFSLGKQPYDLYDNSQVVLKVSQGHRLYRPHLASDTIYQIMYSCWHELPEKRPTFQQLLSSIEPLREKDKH

[5] = target: T3, Tyrosine-protein kinase Tec (Homo sapiens) (UniProt P42680); assay: Displacement of competitive tracer from TEC (unknown origin) assessed as target occupancy at […] preincubated for 15 mins measured for 1 hr relative to control; conditions: dose 1.5 µM
T3 sequence (whole entry): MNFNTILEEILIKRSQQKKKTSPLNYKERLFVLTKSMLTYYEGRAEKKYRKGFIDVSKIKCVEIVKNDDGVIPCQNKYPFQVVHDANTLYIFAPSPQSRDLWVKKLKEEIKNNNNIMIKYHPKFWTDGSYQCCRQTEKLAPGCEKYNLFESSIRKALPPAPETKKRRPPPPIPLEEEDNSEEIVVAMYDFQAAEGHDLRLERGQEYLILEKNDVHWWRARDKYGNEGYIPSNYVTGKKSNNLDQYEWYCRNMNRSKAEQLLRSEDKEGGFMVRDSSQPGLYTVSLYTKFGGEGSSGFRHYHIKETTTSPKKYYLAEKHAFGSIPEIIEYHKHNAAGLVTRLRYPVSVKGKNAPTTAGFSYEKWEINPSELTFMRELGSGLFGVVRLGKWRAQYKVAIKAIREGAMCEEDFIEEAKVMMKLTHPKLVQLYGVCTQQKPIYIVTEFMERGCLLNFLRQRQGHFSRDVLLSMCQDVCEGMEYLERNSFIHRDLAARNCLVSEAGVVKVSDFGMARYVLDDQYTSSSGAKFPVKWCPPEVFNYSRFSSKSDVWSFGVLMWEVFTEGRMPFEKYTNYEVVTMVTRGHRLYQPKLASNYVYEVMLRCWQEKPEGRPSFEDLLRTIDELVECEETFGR

[6] = tested on: Rattus norvegicus; assay: Antiarthritic activity in collagen-induced arthritis Lewis rat model assessed as inhibition of ankle diameter administered orally daily for 10 days; assay type: functional, organism-based; conditions: dose 3-30 mg/kg/day, route po, time 10.0 day, DDE = dose-dependent effect
[7] = Drug concentration in plasma of collagen-induced arthritis Lewis rat model 30 mg/kg/day, po measured after 6 hrs post-collection of plasma; assay type: ADME, organism-based
[8] = Mutagenicity in Salmonella typhimurium by Ames test; assay type: toxicity; conditions: salmonella enterica subsp. enterica serovar typhimurium
[9] = target: Tyrosine-protein kinase Blk (Homo sapiens, UniProt P51451); assay: Displacement of competitive tracer from BLK (unknown origin) assessed as target occupancy at […] preincubated for 15 mins measured for 6 hrs relative to control; conditions: dose 1.5 µM
Sequence of Tyrosine-protein kinase Blk (P51451 2-505 limits assumed): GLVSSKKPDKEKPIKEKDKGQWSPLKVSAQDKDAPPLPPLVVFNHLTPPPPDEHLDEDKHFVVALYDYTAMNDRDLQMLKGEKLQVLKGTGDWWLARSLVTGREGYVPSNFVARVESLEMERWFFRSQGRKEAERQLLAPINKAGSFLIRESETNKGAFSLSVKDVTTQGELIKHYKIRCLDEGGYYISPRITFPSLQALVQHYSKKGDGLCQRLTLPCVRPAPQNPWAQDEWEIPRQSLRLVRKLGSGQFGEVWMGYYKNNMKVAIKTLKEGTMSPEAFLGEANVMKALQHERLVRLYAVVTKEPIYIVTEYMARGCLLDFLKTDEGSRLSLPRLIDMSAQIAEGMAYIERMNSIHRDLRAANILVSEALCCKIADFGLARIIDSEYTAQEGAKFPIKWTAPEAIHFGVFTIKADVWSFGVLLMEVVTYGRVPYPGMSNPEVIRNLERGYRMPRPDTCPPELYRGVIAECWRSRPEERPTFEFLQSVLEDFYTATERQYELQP

[10] = Inhibition of NFAT activation in anti-CD3/anti-CD28-stimulated human Jurkat T cells; assay type: cell-based
[11] = target: T3, Tyrosine-protein kinase Tec (Homo sapiens); assay: Displacement of competitive tracer from TEC (unknown origin) assessed as target occupancy at […] preincubated for 15 mins measured for 24 hrs relative to control; conditions: dose 1.5 µM
[12] = Toxicity in male Beagle dog assessed as NOAEL; design: species or system Canis lupus familiaris; conditions: in vivo
[13] = Toxicity in female Beagle dog assessed as NOAEL; design: species or system Canis lupus familiaris; conditions: in vivo
[14] = Toxicity in female Beagle dog assessed as reduction in activity up to 400 mg/kg/day qd for 12 weeks; assay type: organism-based, Canis lupus familiaris; conditions: in vivo, 2016 h

Cp [1]: Bld
Activity [2]: 82%
inhibition [3]: > 50%
Activity [4]: 82%
Activity [5]: 87%
concentration at 6 h [7]: 111 ng/mL
Activity [9]: 44%
pIC50 [10]: 5.68
Activity [11]: 76%
SMILES: CC(C)(C)/C=C(\C#N)C(=O)N1CCC[C@@H](n2nc(-c3ccc(Oc4ccccc4)cc3F)c3c(N)ncnc32)C1 [ATUZABRUTINIB]
Activity [6]: Dde
Activity [8]: Non-Toxic
NOAEL [12]: 400 mg/kg
NOAEL [13]: 120 mg/kg
Activity [14]: Toxic
